Test results from patent publication US20140329776A1, “Mitochondria-Targeted Antioxidants for Treatment of Age-Related Brain Disorders” (MITOTECH S.A., priority 2011, published 2014).

How the values were obtained:
Format in all cases: in vivo, rat
[1] = system: Wistar rats; assay: acoustical startle reflex, pre-impulse inhibition in offspring of rats with hyperhomocysteinemia; conditions: pups day 45
Source text: FIG. 13 is a graphic representation showing the inhibition of startle reaction to loud stimulus by pre-impulse in rats, where the histogram bars indicate the mean level of startle reaction after pre-stimulus as % to that of control group of rats (without hyperhomocisteinemia). l-m corresponds to group of rats treated with high L-methionine diet, and skq+lm corresponds to group of rats treated with high L-methionine diet and SkQ1.
FIG. 14 is a graphic representation showing habituation of rats to double acoustic stimulus in normal conditions, under hyperhomocisteinemia and under hyperhomocisteinemia treated with SkQ1, where motor reaction to the double stimulus and P values for different pairs of groups is indicated.
An experiment was performed on 161 female Wistar rats (n=12) with body weight 200 g-250 g and their offspring (n=149) from 0 to 1.5 months old. All animals were SPF-category and were housed under the standard conditions according to GLP-regulations (controlled microbiological conditions, light-dark cycle 12/12 hours, ventilation rate 10-12 V/h, room temperature 22+2° C., with maximum change 1° C. per day, humidity 30-70%). Rats were housed in individual cages with free access to food and water.
Each female rat was held with 3 male rats for one night. First day of the pregnancy was considered to be the day when spermatozoon were found in a vaginal smear. […]

[2] = system: Wistar rats; assay: muscle strength measurement 4 hours after ethanol narcosis; conditions: SkQ1 250 nM after ethanol narcosis; p<0.05
Protocol: FIG. 6 is a graphic representation showing muscle strength measurement 4 hours after ethanol narcosis in % to intact control. *−p<0.05 to negative control, #−p<0.05 to intact control;
In these experiments, 6 groups of experimental animals (Wistar rats) were used. (1) The Intact Control group (n=12), had no ethanol narcosis, and were orally administered a normal isotonic 0.9% NaCl solution; (2) the Negative Control group (n=12) was orally administered a normal physiological solution after ethanol narcosis; (3) The SkQ1 50 nM control group (n=12) was orally administered SkQ1 in a concentration 50 nM after ethanol narcosis; (4) The SkQ1 250 nM control group (n=12) was orally administered SkQ1 in a concentration of 250 nM after ethanol narcosis; (5) The SkQ1 1250 nM control group (n=12) was orally administered SkQ1 in a concentration of 1250 nM after ethanol narcosis; (6) the SkQ1 1250 nM intr control group (n=13) was intraperitoneally administered SkQ1 in a concentration of 1250 nM after ethanol narcosis.
In the Negative Control group ethanol intoxication caused a decrease of locomotor activity compared to Intact Control group: decreased track length (p<0.05), movement time (p<0.05), mean speed (p<0.05) and increased immobilization time (p<0.05) (FIG. 4). […]

[3] = system: chronically alcoholised rats; assay: open field test of chronically alcoholised rats; conditions: vs Negative Control
Protocol: FIG. 9 is a graphic representation showing behavior parameters in the open field test of chronically alcoholised rats in % to intact control. (*−p<0.05; **—p<0.005 to negative control; #—p<0.05, ##—p<0.01, to intact control);
Male albino rats had free access to a 15% ethanol solution, as well as to food and water. After 6 months of alcoholisation, animals with average consumption more than 11 ml of 15% ethanol solution were divided into two even groups and subjected to the following treatment. The Negative Control group (n=16) (chronically alcoholised rats) were orally administered 1 ml per kg of isotonic 0.9% NaCl solution every two days for 20 days during alcohol deprivation. The SkQ1 group (n=17) (chronically alcoholised rats) were orally administered 1 ml per kg of SkQ1 250 nM solution every two days for 20 days during alcohol deprivation. The Intact Control group (n=10) (animals had no previous contact with ethanol) were orally administered 1 ml per kg of normal physiological solution every two days for 20 days.
After this course of drug administration, the effect on behavioral parameters was observed using the open field test, the elevated plus maze test, and the Porsolt forced swimming test.
In the open field test, treated animals had increased number of rearing ((p<0.05), number of entrance in central zone (p<0.01), movement time in central zone (p<0.05)) compared to the Negative Control group (FIG. 9. Therefore, SkQ1 increases exploratory activity during alcohol deprivation.

[4] = system: Wistar rats; assay: elevated plus maze, age-dependent behavioral defects; conditions: 14-month-old rats
Source text: Rats of 3 months and 14 months old were investigated. An elevated plus maze with two open and two closed arms was used. Young animals placed in the maze center entered both types of arms with equal probability (FIGS. 2A and 2C). However, the 14-month-old rats preferred to enter the closed arms only (FIG. 2D), the probability of entering the open arms being extremely low. If, nevertheless, a 14-month-old rat entered an open arm, the animal immediately left this arm (FIG. 2B). […] This difference was also abolished by SkQ1 (Stefanova, et al., J. Alzheimer's Dis. 21:479-491 (2010)).

[5] = 250 nmol/kg daily in food for 10 weeks

## CC1=C(C)C(=O)C(CCCCCCCCCC[P+](c2ccccc2)(c2ccccc2)c2ccccc2)=CC1=O [SkQ1, plastoquinonyl decyltriphenyl-phosphonium]
[1]; SkQ1 250 nM/kg orally to mother rats once per 2 d during lactation
  parameters of pre-impulse inhibition of the progeny: normalized
[1]; SkQ1-treated group
  non stable and very high reflex reaction on sound stimuli (effect of hyperhomocisteinemia): significantly reduced
[2]
  muscle strength: increasing
[3]; 1 ml per kg SkQ1 250 nM solution orally every two days for 20 days during alcohol deprivation, p<0.05
  number of rearing: increased
[3]; SkQ1 250 nM solution orally every two days for 20 days, p<0.01
  number of entrance in central zone: increased
[3]; SkQ1 250 nM solution orally every two days for 20 days, p<0.05
  movement time in central zone: increased
[4]; 250 nmol/kg body weight daily in food for 10 weeks
  age effect in elevated plus maze: completely reversed
[4]; [5]
  probability of entering an open arm: as high as for young rats
  time spent in open arm: almost as long as for the young rodents
